Reference: patent US8471005B2 (Cephalon, Inc., priority 2008, dated 2013)
Read-outs that look alike come from different tables or passages of the source.

What was measured:
[1] = biological target: T1, ALK (Homo sapiens, UniProt Q9UM73); assay: ALK Kinase Assay (ELISA/TRF, PLC-γ substrate); assay type: biochemical; conditions: read-out: ALK Potency
T1 construct: host or cells: baculovirus expression system
In short: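 IC50 values derive from percent inhibition plotted against log10 compound concentration and fitted to a variable-slope sigmoidal equation. The underlying reaction used 30 ng/ml ALK acting on immobilized PLC-γ (10 μg/mL in TBS) at 37° C for 15 minutes, read with Eu-N1 PT66 antibody.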

[2] = biological target: T2, JAK2 (Homo sapiens, UniProt O60674); assay: Recombinant Human JAK2 Kinase Assay (TRF); assay type: biochemical; conditions: read-out: JAK2 Potency
T2 construct: host or cells: baculovirus expression system
Experimental: Compounds were tested for their ability to inhibit the kinase activity of baculovirus-expressed JAK2 using the TRF detection system. […] The plates were coated first with 100 μL/well of 10 μg/mL Neutravidin (Pierce #31000, Rockford, Ill.) in TBS at 37° C. for 2 hours, followed by 100 μL/well of 1 μg/mL 15-mer peptide substrate (biotinyl-amino-hexanoyl-[…]-amide, Infinity Biotech Research and Resource, Aston, Pa.) at 37° C. for another hour. The JAK2 assay mixture (total volume=100 μL/well) consisting of 20 mM HEPES (pH 7.2), 0.2 μM ATP, 1 mM MnCl2, 0.1% BSA, and test compound (diluted in DMSO; 2.5% DMSO final in assay) was then added to the assay plate. Enzyme (15 ng/ml JAK2) was added and the reaction was allowed to proceed at room temperature for 20 minutes. Detection of the phosphorylated product was performed by adding 100 μL/well of Eu—N1 labeled PY100 antibody (PerkinElmer Life Sciences #AD0041, Boston, Mass.).

[3] = ALK kinase inhibition, 1 μM ATP
[4] = JAK2 kinase inhibition, 0.2 μM ATP

T2 sequence (O60674 whole entry): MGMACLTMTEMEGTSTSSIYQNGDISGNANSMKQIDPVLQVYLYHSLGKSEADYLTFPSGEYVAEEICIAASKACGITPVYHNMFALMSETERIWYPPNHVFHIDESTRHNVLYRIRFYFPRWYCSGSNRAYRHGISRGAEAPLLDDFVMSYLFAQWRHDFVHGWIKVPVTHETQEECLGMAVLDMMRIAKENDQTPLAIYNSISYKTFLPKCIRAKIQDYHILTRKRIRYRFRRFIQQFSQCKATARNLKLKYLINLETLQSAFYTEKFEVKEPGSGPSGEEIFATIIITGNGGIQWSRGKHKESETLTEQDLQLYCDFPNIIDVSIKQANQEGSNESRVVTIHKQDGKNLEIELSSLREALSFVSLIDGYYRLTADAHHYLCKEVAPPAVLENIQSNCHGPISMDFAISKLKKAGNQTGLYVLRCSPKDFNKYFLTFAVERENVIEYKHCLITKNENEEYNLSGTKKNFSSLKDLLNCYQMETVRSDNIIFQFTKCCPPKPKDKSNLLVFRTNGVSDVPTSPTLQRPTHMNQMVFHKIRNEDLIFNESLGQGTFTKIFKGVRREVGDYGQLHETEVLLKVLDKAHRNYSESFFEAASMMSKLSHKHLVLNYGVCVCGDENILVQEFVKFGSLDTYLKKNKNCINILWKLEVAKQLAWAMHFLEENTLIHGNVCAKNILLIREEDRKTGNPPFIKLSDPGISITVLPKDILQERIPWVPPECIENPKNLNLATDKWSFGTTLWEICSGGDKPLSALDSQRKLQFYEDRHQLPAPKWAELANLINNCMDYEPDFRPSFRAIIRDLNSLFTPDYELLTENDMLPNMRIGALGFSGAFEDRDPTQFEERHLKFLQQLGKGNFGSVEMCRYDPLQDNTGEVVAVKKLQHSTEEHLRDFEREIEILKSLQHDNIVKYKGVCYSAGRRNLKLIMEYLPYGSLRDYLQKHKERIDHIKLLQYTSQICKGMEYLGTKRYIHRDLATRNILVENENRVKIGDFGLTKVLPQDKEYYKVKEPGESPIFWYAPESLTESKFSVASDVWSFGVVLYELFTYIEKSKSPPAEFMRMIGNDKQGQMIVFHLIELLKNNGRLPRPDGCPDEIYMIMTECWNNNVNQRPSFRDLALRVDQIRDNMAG
T1 sequence (Q9UM73 19-1620): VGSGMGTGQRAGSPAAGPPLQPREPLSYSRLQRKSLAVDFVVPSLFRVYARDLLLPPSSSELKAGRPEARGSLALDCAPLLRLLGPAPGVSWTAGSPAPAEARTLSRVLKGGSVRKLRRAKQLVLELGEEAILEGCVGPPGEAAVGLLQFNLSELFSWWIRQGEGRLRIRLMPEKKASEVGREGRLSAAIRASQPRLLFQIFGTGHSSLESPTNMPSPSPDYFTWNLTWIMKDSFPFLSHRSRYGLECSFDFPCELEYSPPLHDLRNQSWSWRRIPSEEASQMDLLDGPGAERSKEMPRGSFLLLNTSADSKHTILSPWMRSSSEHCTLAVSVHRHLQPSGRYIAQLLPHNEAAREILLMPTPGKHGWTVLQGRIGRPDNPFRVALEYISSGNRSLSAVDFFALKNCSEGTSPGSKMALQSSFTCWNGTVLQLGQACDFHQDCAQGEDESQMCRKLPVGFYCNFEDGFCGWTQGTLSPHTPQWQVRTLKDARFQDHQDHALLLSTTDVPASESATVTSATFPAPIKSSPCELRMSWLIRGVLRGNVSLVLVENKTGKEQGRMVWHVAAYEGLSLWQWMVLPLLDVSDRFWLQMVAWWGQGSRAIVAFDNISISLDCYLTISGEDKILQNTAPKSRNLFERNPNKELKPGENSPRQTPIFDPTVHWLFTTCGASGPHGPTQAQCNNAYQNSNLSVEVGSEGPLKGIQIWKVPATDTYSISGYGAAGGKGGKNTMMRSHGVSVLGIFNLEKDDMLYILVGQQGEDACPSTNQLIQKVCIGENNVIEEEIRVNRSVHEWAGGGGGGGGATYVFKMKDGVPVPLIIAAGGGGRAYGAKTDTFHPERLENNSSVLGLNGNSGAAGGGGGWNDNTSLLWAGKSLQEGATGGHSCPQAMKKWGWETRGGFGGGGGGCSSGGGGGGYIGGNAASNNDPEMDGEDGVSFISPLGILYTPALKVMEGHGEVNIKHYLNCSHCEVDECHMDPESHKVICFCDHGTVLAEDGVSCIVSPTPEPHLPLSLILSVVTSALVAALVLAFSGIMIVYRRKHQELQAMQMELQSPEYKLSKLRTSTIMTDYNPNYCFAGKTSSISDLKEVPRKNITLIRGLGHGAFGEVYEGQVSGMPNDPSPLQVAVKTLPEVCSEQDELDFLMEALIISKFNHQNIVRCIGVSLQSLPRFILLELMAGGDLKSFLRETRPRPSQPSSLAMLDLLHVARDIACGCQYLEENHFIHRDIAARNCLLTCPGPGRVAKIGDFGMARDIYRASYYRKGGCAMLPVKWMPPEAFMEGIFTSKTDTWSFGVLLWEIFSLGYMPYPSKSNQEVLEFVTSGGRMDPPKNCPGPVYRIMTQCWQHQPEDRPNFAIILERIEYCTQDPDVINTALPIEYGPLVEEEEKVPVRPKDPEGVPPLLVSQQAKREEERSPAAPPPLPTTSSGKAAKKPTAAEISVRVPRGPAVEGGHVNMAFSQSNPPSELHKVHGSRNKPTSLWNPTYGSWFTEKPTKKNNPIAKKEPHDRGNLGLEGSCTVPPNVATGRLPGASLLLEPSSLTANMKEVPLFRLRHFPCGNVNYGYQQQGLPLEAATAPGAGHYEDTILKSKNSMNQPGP

COc1cc(C2CCN(C(=O)C3CCN3)CC2)ccc1Nc1ncc2ccc(-c3ccccc3N(C)S(C)(=O)=O)n2n1 (racemic) [Example 863, (±)-N-[2-(2-{4-[1-(Azetidine-2-carbonyl)-piperidin-4-yl]-2-methoxy-phenylamino}-pyrrolo[2,1-f][1,2,4]triazin-7-yl)-phenyl]-N-methyl-methanesulfonamide]
IC50 [1, 3]: < 100 nM | IC50 [2, 4]: 1000 to 10000 nM

COc1cc(C2CCN(CC3CCN3C)CC2)ccc1Nc1ncc2ccc(-c3ccccc3N(C)S(C)(=O)=O)n2n1 (racemic) [Example 871, (±)-N-[2-(2-{2-Methoxy-4-[1-(1-methyl-azetidin-2-ylmethyl)-piperidin-4-yl]-phenylamino}-pyrrolo[2,1-f][1,2,4]triazin-7-yl)-phenyl]-N-methyl-methanesulfonamide]
IC50 [1, 3]: < 100 nM | IC50 [2, 4]: 1000 to 10000 nM

COc1cc(N2CCCC(N3CCN(C)CC3)C2)ccc1Nc1ncc2ccc(-c3ccccc3OC)n2n1 (single isomer, unassigned) [Example 1441, {2-Methoxy-4-[3-(4-methyl-piperazin-1-yl)-piperidin-1-yl]-phenyl}-[7-(2-methoxy-phenyl)-pyrrolo[2,1-f][1,2,4]triazin-2-yl]-amine]
IC50 ([1]; ALK Kinase Inhibition): < 100 nM | IC50 ([2]; JAK2 Kinase Inhibition): < 100 nM

COc1cc(N2CCCC(N3CCN(C)CC3)C2)ccc1Nc1ncc2ccc(-c3ccccc3OC)n2n1 (single isomer, unassigned) [Example 1442, {2-Methoxy-4-[3-(4-methyl-piperazin-1-yl)-piperidin-1-yl]-phenyl}-[7-(2-methoxy-phenyl)-pyrrolo[2,1-f][1,2,4]triazin-2-yl]-amine]
IC50 ([1]; ALK Kinase Inhibition): < 100 nM | IC50 ([2]; JAK2 Kinase Inhibition): 100 to 1000 nM

Clc1cccc(-c2ccc3cnc(Nc4ccc(N5CCOCC5)cc4)nn23)c1 [Example 1, [7-(3-Chloro-phenyl)-pyrrolo[2,1-f][1,2,4]triazin-2-yl]-(4-morpholin-4-yl-phenyl)-amine]
IC50 ([1]; ALK Kinase Inhibition): > 10000 nM | IC50 ([2]; JAK2 Kinase Inhibition): < 100 nM

c1ccc(-c2ccc3cnc(Nc4ccc(N5CCOCC5)cc4)nn23)cc1 [Example 2, (4-Morpholin-4-yl-phenyl)-(7-phenyl-pyrrolo[2,1-f][1,2,4]triazin-2-yl)amine]
IC50 ([1]; ALK Kinase Inhibition): 100 to 1000 nM | IC50 ([2]; JAK2 Kinase Inhibition): < 100 nM

COc1ccc(Cl)cc1-c1ccc2cnc(Nc3ccc(N4CCOCC4)cc3)nn12 [Example 3, [7-(5-Chloro-2-methoxy-phenyl)-pyrrolo[2,1-f][1,2,4]triazin-2-yl]-(4-morpholin-4-yl-phenyl)-amine]
IC50 ([1]; ALK Kinase Inhibition): 100 to 1000 nM | IC50 ([2]; JAK2 Kinase Inhibition): < 100 nM

c1cc(-c2ccc3cnc(Nc4ccc(N5CCOCC5)cc4)nn23)ccn1 [Example 4, (4-Morpholin-4-yl-phenyl)-(7-pyridin-4-yl-pyrrolo[2,1-f][1,2,4]triazin-2-yl)-amine]
IC50 ([1]; ALK Kinase Inhibition): 1000 to 10000 nM | IC50 ([2]; JAK2 Kinase Inhibition): < 100 nM

c1cc(N2CCOCC2)ccc1Nc1ncc2ccc(-c3ccc4c(c3)OCCO4)n2n1 [Example 5, [7-(2,3-Dihydro-benzo[1,4]dioxin-6-yl)-pyrrolo[2,1-f][1,2,4]triazin-2-yl]-(4-morpholin-4-yl-phenyl)-amine]
IC50 ([1]; ALK Kinase Inhibition): 1000 to 10000 nM | IC50 ([2]; JAK2 Kinase Inhibition): < 100 nM

COC(=O)c1cccc(-c2ccc3cnc(Nc4ccc(N5CCOCC5)cc4)nn23)c1 [Example 6, 3-[2-(4-Morpholin-4-yl-phenylamino)-pyrrolo[2,1-f][1,2,4]triazin-7-yl]-benzoic acid methyl ester]
IC50 ([1]; ALK Kinase Inhibition): > 10000 nM | IC50 ([2]; JAK2 Kinase Inhibition): < 100 nM

CN1CCN(c2ccc(Nc3ncc4ccc(-c5ccccc5)n4n3)cc2)CC1 [Example 7, [4-(4-Methyl-piperazin-1-yl)-phenyl]-(7-phenyl-pyrrolo[2,1-f][1,2,4]triazin-2-yl)-amine]
IC50 ([1]; ALK Kinase Inhibition): < 100 nM | IC50 ([2]; JAK2 Kinase Inhibition): < 100 nM

CN1CCN(c2ccc(Nc3ncc4ccc(-c5ccc6c(c5)OCCO6)n4n3)cc2)CC1 [Example 8, [7-(2,3-Dihydro-benzo[1,4]dioxin-6-yl)-pyrrolo[2,1-f][1,2,4]triazin-2-yl]-[4-(4-methyl-piperazin-1-yl)-phenyl]-amine]
IC50 ([1]; ALK Kinase Inhibition): < 100 nM | IC50 ([2]; JAK2 Kinase Inhibition): < 100 nM

COCCN1CCc2ccc(Nc3ncc4ccc(-c5ccccc5)n4n3)cc2CC1 [Example 9, [3-(2-Methoxy-ethyl)-2,3,4,5-tetrahydro-1H-benzo[d]azepin-7-yl]-(7-phenyl-pyrrolo[2,1-f][1,2,4]triazin-2-yl)-amine]
IC50 ([1]; ALK Kinase Inhibition): < 100 nM | IC50 ([2]; JAK2 Kinase Inhibition): < 100 nM

Cn1cc(-c2ccc3cnc(Nc4ccc(N5CCOCC5)cc4)nn23)cn1 [Example 10, [7-(1-Methyl-1H-pyrazol-4-yl)-pyrrolo[2,1-f][1,2,4]triazin-2-yl]-(4-morpholin-4-yl-phenyl)-amine]
IC50 ([1]; ALK Kinase Inhibition): 1000 to 10000 nM | IC50 ([2]; JAK2 Kinase Inhibition): < 100 nM

c1cncc(-c2ccc3cnc(Nc4ccc(N5CCOCC5)cc4)nn23)c1 [Example 11, (4-Morpholin-4-yl-phenyl)-(7-pyridin-3-yl-pyrrolo[2,1-f][1,2,4]triazin-2-yl)-amine]
IC50 ([1]; ALK Kinase Inhibition): 1000 to 10000 nM | IC50 ([2]; JAK2 Kinase Inhibition): < 100 nM

c1ccc(-c2ccc3cnc(NCc4cccnc4)nn23)cc1 [Example 12, (7-Phenyl-pyrrolo[2,1-f][1,2,4]triazin-2-yl)-pyridin-3-ylmethyl-amine]
IC50 ([1]; ALK Kinase Inhibition): 1000 to 10000 nM | IC50 ([2]; JAK2 Kinase Inhibition): 1000 to 10000 nM

COc1cc(Nc2ncc3ccc(-c4ccccc4)n3n2)cc(OC)c1OC [Example 13, (7-Phenyl-pyrrolo[2,1-f][1,2,4]triazin-2-yl)-(3,4,5-trimethoxy-phenyl)amine]
IC50 ([1]; ALK Kinase Inhibition): 100 to 1000 nM | IC50 ([2]; JAK2 Kinase Inhibition): < 100 nM

O=C(c1ccc(-c2ccc3cnc(Nc4ccc(N5CCOCC5)cc4)nn23)cc1)N1CCOCC1 [Example 14, Morpholin-4-yl-{4-[2-(4-morpholin-4-yl-phenylamino)-pyrrolo[2,1-f][1,2,4]triazin-7-yl]-phenyl}-methanone]
IC50 ([1]; ALK Kinase Inhibition): 100 to 1000 nM | IC50 ([2]; JAK2 Kinase Inhibition): < 100 nM

O=C(c1cccc(-c2ccc3cnc(Nc4ccc(N5CCOCC5)cc4)nn23)c1)N1CCCC1 [Example 15, {3-[2-(4-Morpholin-4-yl-phenylamino)-pyrrolo[2,1-f][1,2,4]triazin-7-yl]-phenyl}-pyrrolidin-1-yl-methanone]
IC50 ([1]; ALK Kinase Inhibition): 100 to 1000 nM | IC50 ([2]; JAK2 Kinase Inhibition): < 100 nM

COc1ncccc1-c1ccc2cnc(Nc3ccc(N4CCOCC4)cc3)nn12 [Example 16, [7-(2-Methoxy-pyridin-3-yl)-pyrrolo[2,1-f][1,2,4]triazin-2-yl]-(4-morpholin-4-yl-phenyl)-amine]
IC50 ([1]; ALK Kinase Inhibition): 100 to 1000 nM | IC50 ([2]; JAK2 Kinase Inhibition): < 100 nM

COc1ccc(Cl)cc1-c1ccc2cnc(Nc3ccc(N4CCN(C)CC4)cc3)nn12 [Example 17, [7-(5-Chloro-2-methoxy-phenyl)-pyrrolo[2,1-f][1,2,4]triazin-2-yl]-[4-(4-methyl-piperazin-1-yl)-phenyl]-amine]
IC50 ([1]; ALK Kinase Inhibition): < 100 nM | IC50 ([2]; JAK2 Kinase Inhibition): < 100 nM

CN1CCN(c2ccc(Nc3ncc4ccc(-c5cnn(C)c5)n4n3)cc2)CC1 [Example 18, [4-(4-Methyl-piperazin-1-yl)-phenyl]-[7-(1-methyl-1H-pyrazol-4-yl)-pyrrolo[2,1-f][1,2,4]triazin-2-yl]-amine]
IC50 ([1]; ALK Kinase Inhibition): 100 to 1000 nM | IC50 ([2]; JAK2 Kinase Inhibition): < 100 nM

CN1CCN(c2ccc(Nc3ncc4ccc(-c5ccc(C(=O)N6CCOCC6)cc5)n4n3)cc2)CC1 [Example 19, (4-{2-[4-(4-Methyl-piperazin-1-yl)-phenylamino]-pyrrolo[2,1-f][1,2,4]triazin-7-yl}-phenyl)-morpholin-4-yl-methanone]
IC50 ([1]; ALK Kinase Inhibition): 100 to 1000 nM | IC50 ([2]; JAK2 Kinase Inhibition): < 100 nM

CN1CCN(c2ccc(Nc3ncc4ccc(-c5cccc(C(=O)N6CCCC6)c5)n4n3)cc2)CC1 [Example 21, (3-{2-[4-(4-Methyl-piperazin-1-yl)-phenylamino]-pyrrolo[2,1-f][1,2,4]triazin-7-yl}-phenyl)-pyrrolidin-1-yl-methanone]
IC50 ([1]; ALK Kinase Inhibition): 100 to 1000 nM | IC50 ([2]; JAK2 Kinase Inhibition): < 100 nM

COc1ncccc1-c1ccc2cnc(Nc3ccc(N4CCN(C)CC4)cc3)nn12 [Example 22, [7-(2-Methoxy-pyridin-3-yl)-pyrrolo[2,1-f][1,2,4]triazin-2-yl]-[4-(4-methyl-piperazin-1-yl)-phenyl]-amine]
IC50 ([1]; ALK Kinase Inhibition): < 100 nM | IC50 ([2]; JAK2 Kinase Inhibition): < 100 nM

CN1CCN(c2ccc(Nc3ncc4ccc(Nc5ccccc5)n4n3)cc2)CC1 [Example 24, N(2)-[4-(4-Methyl-piperazin-1-yl)-phenyl]-N(7)-phenyl-pyrrolo[2,1-f][1,2,4]triazine-2,7-diamine]
IC50 ([1]; ALK Kinase Inhibition): 1000 to 10000 nM | IC50 ([2]; JAK2 Kinase Inhibition): < 100 nM

CN1CCN(c2ccc(Nc3ncc4ccc(-c5ccccc5Cl)n4n3)cc2)CC1 [Example 25, [7-(2-Chloro-phenyl)-pyrrolo[2,1-f][1,2,4]triazin-2-yl]-[4-(4-methyl-piperazin-1-yl)-phenyl]-amine]
IC50 ([1]; ALK Kinase Inhibition): < 100 nM | IC50 ([2]; JAK2 Kinase Inhibition): < 100 nM

CN1CCN(c2ccc(Nc3ncc4ccc(-c5cccc(Cl)c5)n4n3)cc2)CC1 [Example 26, [7-(3-Chloro-phenyl)-pyrrolo[2,1-f][1,2,4]triazin-2-yl]-[4-(4-methyl-piperazin-1-yl)-phenyl]-amine]
IC50 ([1]; ALK Kinase Inhibition): < 100 nM | IC50 ([2]; JAK2 Kinase Inhibition): < 100 nM

CN1CCN(c2ccc(Nc3ncc4ccc(-c5cccnc5)n4n3)cc2)CC1 [Example 27, [4-(4-Methyl-piperazin-1-yl)-phenyl]-(7-pyridin-3-yl-pyrrolo[2,1-f][1,2,4]triazin-2-yl)-amine]
IC50 ([1]; ALK Kinase Inhibition): 100 to 1000 nM | IC50 ([2]; JAK2 Kinase Inhibition): < 100 nM
